The values that follow come from patent publication US20230115945A1, “AMINOPYRIMIDINE COMPOUNDS” (TYRA BIOSCIENCES, INC., priority 2019, published 2023).

By Kd is commonly meant the free concentration of one partner at which half of the binding sites on the other are occupied at equilibrium, for simple one-to-one binding. A higher Kd goes with weaker binding.

Assay [1] relates to RT112/84 cells (Bladder Cancer, FGFR3-TACC3 fusion). Briefly: Cancer cell line cell viability assay, RT112/84. The format is cell-based. The note with it: Homo sapiens, 72 hours, Cell Titer-Glo 2.0, read-out: Cancer Cell Viability Assays RT112/84 (IC50 nM). The text has this:
(§1) [table] To detect the change of intracellular ATP by Cell Titer-Glo® and to evaluate the inhibitory effect of the compounds on cancer cell lines by determining the in vitro IC50 value of the compounds. Cell Titer-Glo® 2.0 Luminescent cell viability assay reagent was purchased from Promega (Madison, Wis.). RT112/84, SNU-16, and KG-1 cell lines were purchased from American Type Culture Collection (Manassas, Va.). UM-UC-14 cell line was purchased from Sigma (St. Louis, Mo.). RT112/84, UM-UC-14, SNU-16, and KG-1 cells were cultured in RPMI1640 media supplemented with 10% fetal bovine serum. Cultures were maintained at 37° C. in a humidified atmosphere of 5% CO2 and 95% air. Cell Viability Assay Procedure: Cells were plated in 96-well clear bottom/white plates (Corning #3903) at 10,000 cells/well in 100 μl of media, incubated overnight. The next day, test compound DMSO stock solutions were made at 10 mM and 2 μM final concentration. Compounds were then added to cells in a 9-dose, […] dilution series starting at 30 μM with an HP 300e Digital Dispenser (each dose was applied in triplicate). DMSO was backfilled to each well up to 301 nL total volume of test compound+DMSO, and a total of 301 nL DMSO was added to a control/no test compound well in triplicate. The cells in cell culture plates were incubated with the compounds at 37° C. and 5% CO2 for 72 hours. Then 50 μl of Cell Titer Glo 2.0 reagent was added to each well of the cell culture plates. The contents were covered from light and mixed on an orbital shaker at room temperature for 10 min. Luminescence was recorded by a Synergy H1 Microplate Reader (Biotek, Winooski, Vt.). Cells were assessed as a percentage of DMSO only treated control cells. Curves were plotted and IC50 values were calculated using the GraphPad Prism 8 program based on a sigmoidal dose-response equation (4 parameter).
For orientation: Cellular ATP, detected with luciferase, serves as a proxy for viable cell number.

For assay [2], the target named is T1, FGFR1 (Homo sapiens, UniProt P11362).
T1 construct: made in house; host or cells: E. coli host derived from BL21, infected with T7 phage
Briefly: Kinase binding assay (Kd), FGFR1. The settings on record: 11-point 3-fold dilution, qPCR readout. The procedure, abridged:
(§2)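 Competition binding: kinase-tagged T7 phage, ligand-coated streptavidin beads and an 11-point 3-fold compound series (0.9% DMSO final) were incubated 1 h at room temperature. Bead-bound kinase was eluted and quantified by qPCR. Kd was fitted to the Hill equation with slope fixed at −1.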
(In general: In qPCR the cycle at which signal appears reflects the starting amount.)

Assay [3] concerns the target T2, FGFR2 (Homo sapiens, UniProt P21802).
T2 construct: made in house; host or cells: E. coli host derived from BL21, infected with T7 phage
As to the kind of experiment: Kinase binding assay (Kd), FGFR2. The settings on record: 11-point 3-fold dilution, qPCR readout. The procedure, abridged:
as §2

In assay [4] the test system is SNU-16 cells (Gastric Carcinoma, FGFR2 amplification). Briefly: Cancer cell line cell viability assay, SNU-16. The format is cell-based. The settings on record: Homo sapiens, 72 hours, Cell Titer-Glo 2.0, read-out: Cancer Cell Viability Assays SNU-16 (IC50 nM).
Text: as §1

Assay [5] concerns the target T3, FGFR1-BCR Ba/F3 cells (Homo sapiens, UniProt P11362).
T3 construct: Ba/F3 FGFR1; FGFR1-BCR; Advanced Cellular Dynamics, (Seattle, WA); fused on or other part: P11274 (Breakpoint cluster region protein)
Briefly: Ba/F3 cell viability assay, FGFR1. The format is cell-based. The settings on record: FGFR1-BCR Ba/F3, 48 hours, Cell Titer-Glo 2.0; read-out: Ba/F3 Cells FGFR1 (IC50 nM). The text has this:
(§3) Experimental Purpose: Recombinant kinase fusions are transduced into parental Ba/F3, which becomes dependent upon this constitutive kinase activity for IL3-independent survival. Inhibition of kinase activity leads to cell death, which is monitored using CellTiter-Glo® 2.0 (Promega) which measures intracellular ATP concentration that in turn serves as a marker for viability. FGFR1-BCR Ba/F3 and FGFR3-BAIAP2L1 Ba/F3 were obtained from Advanced Cellular Dynamics (Seattle, Wash.)
(§4) Cell Viability Assay Procedure: Cell Titer-Glo® 2.0 Luminescent cell viability assay reagent was purchased from Promega (Madison, Wis.). FGFR1-BCR Ba/F3 and FGFR3-BAIAP2L1 Ba/F3 cells were cultured in RPMI1640 media supplemented with 10% fetal bovine serum. Cultures were maintained at 37° C. in a humidified atmosphere of 5% CO2 and 95% air.
(§5) Cells were plated in 96-well clear bottom/white plates (Corning #3903) at 10,000 cells/well in 100 μl of media, incubated overnight. The next day, test compound DMSO stock solutions were made at 10 mM and 2 μM final concentration. Compounds were then added to cells in a 9-dose, 10-fold dilution series starting at 30 μM with an HP 300e Digital Dispenser (each dose was applied in triplicate). DMSO was backfilled to each well up to 301 nL total volume of test compound+DMSO, and a total of 301 nL DMSO was added to a control/no test compound well in triplicate. The cells in cell culture plates were incubated with the compounds at 37° C. and 5% CO2 for 48 hours. Then 50 μl of Cell Titer Glo 2.0 reagent was added to each well of the cell culture plates. The contents were covered from light and mixed on an orbital shaker at room temperature for 10 min. Luminescence was recorded by a Synergy H1 Microplate Reader (Biotek, Winooski, Vt.). Cells were assessed as a percentage of DMSO only treated control cells. Curves were plotted and IC50 values were calculated using the GraphPad Prism 8 program based on a sigmoidal dose-response equation (4 parameter).

For assay [6], the target named is T4, FGFR3 (Homo sapiens, UniProt P22607).
T4 construct: made in house; host or cells: E. coli host derived from BL21, infected with T7 phage
As to the kind of experiment: Kinase binding assay (Kd), FGFR3. The settings on record: 11-point 3-fold dilution, qPCR readout. The procedure, abridged: as §2

In assay [7] the target is T5, FGFR4 (Homo sapiens, UniProt P22455).
T5 construct: made in house; host or cells: E. coli host derived from BL21, infected with T7 phage
As to the kind of experiment: Kinase binding assay (Kd), FGFR4. The settings on record: 11-point 3-fold dilution, qPCR readout. In short, it runs like this:
as §2

Assay [8] has as its target T6, FGFR3 (V555M) (Homo sapiens, UniProt P22607, V555M).
T6 construct: made in house; host or cells: E. coli host derived from BL21, infected with T7 phage
Briefly: Kinase binding assay (Kd), FGFR3 (V555M). The note with it: 11-point 3-fold dilution, qPCR readout. In short, it runs like this:
as §2

Assay [9] deals with T7, FGFR3-BAIAP2L1 Ba/F3 cells (Homo sapiens, UniProt P22607).
T7 construct: Ba/F3 FGFR3; FGFR3--BAIAP2L1 fusion; Advanced Cellular Dynamics, (Seattle, WA); fused on or other part: Q9UHR4 (BAR/IMD domain-containing adapter protein 2-like 1)
Briefly: Ba/F3 cell viability assay, FGFR3. The assay is classed as cell-based. The settings on record: FGFR3-BAIAP2L1 fusion Ba/F3, 48 hours, Cell Titer-Glo 2.0; read-out: Ba/F3 Cells FGFR3 (IC50 nM).
Text: as §3, §4, §5

T4 sequence (P22607 23-806): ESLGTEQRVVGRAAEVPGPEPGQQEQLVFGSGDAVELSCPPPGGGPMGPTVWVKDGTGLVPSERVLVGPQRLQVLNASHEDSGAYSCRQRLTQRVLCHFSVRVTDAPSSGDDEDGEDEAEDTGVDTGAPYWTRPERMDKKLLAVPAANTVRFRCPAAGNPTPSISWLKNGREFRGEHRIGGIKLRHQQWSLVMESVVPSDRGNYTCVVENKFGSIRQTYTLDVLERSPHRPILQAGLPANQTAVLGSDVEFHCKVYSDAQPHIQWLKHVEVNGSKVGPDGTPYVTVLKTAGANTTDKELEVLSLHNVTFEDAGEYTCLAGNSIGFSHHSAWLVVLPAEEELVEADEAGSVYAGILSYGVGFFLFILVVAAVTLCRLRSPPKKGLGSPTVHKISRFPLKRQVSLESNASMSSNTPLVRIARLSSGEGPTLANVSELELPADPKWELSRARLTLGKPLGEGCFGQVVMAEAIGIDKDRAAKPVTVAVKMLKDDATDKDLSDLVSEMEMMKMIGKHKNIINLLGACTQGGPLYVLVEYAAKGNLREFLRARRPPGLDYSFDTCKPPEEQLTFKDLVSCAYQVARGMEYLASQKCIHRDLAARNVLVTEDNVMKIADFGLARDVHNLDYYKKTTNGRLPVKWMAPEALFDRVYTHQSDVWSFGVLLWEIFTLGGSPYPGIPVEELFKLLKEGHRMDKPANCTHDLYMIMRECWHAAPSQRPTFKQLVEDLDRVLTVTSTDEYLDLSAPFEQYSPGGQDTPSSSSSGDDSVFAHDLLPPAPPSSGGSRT
T6 sequence (P22607 23-806 V555M): as the sequence (P22607 23-806) above, with V533M counted along it
T5 sequence (P22455 22-802): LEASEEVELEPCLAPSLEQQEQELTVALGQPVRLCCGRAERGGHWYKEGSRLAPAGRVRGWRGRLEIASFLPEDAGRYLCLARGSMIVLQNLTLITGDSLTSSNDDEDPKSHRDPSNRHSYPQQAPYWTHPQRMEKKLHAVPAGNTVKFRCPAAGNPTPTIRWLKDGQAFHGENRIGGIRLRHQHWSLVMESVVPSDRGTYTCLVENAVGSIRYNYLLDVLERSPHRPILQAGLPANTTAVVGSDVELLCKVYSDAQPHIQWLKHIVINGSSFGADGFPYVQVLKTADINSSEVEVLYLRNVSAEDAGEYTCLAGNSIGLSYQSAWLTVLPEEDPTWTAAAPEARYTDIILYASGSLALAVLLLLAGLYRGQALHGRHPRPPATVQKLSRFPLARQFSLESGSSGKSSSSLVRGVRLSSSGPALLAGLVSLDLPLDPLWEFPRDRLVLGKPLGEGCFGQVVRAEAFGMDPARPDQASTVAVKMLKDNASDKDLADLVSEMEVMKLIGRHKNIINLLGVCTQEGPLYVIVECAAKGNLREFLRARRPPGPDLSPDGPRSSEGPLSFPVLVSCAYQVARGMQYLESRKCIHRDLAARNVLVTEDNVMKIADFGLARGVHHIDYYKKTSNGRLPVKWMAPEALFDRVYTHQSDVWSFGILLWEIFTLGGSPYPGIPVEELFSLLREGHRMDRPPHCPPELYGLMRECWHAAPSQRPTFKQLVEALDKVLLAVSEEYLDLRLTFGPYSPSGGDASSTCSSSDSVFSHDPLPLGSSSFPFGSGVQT
T1 sequence (P11362 22-822): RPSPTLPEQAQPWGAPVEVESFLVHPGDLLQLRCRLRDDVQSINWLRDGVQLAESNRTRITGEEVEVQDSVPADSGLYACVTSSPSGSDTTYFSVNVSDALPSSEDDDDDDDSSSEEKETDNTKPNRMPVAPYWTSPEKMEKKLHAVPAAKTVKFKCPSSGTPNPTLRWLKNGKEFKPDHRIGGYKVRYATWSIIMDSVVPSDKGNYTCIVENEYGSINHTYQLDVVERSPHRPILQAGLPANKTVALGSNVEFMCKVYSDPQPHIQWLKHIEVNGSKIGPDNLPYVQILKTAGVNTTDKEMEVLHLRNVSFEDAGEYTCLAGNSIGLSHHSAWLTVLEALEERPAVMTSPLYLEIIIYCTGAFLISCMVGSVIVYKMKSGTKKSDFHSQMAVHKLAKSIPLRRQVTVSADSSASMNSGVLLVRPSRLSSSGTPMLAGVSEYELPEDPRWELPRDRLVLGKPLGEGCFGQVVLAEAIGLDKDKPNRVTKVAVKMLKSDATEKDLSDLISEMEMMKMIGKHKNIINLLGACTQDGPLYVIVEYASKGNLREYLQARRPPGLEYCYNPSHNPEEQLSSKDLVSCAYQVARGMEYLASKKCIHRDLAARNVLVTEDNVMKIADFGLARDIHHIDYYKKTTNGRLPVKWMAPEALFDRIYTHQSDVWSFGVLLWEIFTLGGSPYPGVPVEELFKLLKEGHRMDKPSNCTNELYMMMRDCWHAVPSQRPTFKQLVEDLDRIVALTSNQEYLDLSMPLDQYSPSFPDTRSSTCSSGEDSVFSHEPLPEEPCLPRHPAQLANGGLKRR
T3 sequence (P11362 whole entry, change not shown, the tested form may be a part): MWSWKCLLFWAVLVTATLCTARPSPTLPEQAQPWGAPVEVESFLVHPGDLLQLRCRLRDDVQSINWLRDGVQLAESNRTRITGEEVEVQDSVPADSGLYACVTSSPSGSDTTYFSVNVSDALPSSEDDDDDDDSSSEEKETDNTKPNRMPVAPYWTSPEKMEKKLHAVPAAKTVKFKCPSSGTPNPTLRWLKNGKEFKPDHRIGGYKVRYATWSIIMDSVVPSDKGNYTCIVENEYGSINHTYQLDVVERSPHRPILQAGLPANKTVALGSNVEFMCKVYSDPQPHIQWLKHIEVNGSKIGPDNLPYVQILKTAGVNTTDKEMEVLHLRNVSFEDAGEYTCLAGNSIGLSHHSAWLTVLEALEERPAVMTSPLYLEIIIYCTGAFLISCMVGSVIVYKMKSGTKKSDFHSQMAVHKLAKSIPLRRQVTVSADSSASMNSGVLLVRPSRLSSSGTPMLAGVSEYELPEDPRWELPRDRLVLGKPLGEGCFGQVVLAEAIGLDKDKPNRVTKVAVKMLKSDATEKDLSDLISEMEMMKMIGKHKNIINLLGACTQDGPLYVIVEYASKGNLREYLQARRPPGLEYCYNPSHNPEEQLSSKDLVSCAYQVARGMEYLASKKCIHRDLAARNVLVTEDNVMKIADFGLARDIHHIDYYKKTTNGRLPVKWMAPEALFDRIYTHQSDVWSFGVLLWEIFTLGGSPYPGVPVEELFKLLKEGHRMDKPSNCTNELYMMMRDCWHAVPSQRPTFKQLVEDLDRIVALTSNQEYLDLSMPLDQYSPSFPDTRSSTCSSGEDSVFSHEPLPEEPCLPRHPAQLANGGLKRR
T7 sequence (P22607 whole entry, change not shown, the tested form may be a part): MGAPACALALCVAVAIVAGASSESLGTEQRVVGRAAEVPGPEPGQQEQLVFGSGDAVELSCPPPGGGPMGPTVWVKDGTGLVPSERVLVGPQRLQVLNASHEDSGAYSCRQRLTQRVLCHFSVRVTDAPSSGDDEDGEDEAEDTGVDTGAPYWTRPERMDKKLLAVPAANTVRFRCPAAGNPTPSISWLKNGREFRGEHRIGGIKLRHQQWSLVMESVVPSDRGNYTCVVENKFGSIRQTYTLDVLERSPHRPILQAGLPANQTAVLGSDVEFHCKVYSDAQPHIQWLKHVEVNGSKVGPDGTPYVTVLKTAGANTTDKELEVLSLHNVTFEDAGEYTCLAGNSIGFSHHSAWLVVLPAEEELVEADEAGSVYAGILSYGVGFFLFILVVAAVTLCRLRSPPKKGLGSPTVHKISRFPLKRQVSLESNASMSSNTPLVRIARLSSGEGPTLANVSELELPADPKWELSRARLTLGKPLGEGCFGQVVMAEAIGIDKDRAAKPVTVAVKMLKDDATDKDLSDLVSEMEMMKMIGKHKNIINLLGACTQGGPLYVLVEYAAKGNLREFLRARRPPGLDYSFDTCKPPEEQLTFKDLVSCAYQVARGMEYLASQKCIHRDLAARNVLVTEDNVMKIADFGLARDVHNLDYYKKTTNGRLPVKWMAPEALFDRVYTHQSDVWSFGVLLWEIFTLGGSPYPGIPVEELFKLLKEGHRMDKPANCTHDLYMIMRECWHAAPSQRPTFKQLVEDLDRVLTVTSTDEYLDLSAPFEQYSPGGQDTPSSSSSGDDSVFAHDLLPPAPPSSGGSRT
T2 sequence (P21802 22-821): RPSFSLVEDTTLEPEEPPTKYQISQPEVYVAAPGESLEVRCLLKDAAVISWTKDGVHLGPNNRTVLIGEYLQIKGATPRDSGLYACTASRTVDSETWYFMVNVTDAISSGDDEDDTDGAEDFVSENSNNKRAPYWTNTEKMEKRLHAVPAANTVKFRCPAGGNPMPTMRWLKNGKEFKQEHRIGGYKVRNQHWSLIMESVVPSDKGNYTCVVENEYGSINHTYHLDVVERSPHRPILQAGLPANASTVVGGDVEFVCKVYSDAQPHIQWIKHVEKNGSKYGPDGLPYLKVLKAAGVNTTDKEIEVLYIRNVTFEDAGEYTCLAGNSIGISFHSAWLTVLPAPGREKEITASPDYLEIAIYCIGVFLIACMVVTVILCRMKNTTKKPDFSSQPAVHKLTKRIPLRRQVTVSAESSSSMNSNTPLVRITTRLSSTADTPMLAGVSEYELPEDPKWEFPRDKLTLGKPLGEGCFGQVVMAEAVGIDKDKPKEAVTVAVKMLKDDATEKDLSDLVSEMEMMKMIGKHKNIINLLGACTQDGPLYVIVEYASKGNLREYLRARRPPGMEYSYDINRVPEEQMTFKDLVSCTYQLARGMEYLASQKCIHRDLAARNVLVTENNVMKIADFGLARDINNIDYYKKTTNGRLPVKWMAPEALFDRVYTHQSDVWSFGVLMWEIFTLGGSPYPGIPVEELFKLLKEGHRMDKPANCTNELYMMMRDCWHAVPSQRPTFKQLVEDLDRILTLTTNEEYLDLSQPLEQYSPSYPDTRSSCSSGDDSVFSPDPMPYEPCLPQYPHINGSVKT

On to `Cc1cnc(Nc2ccc(N=S(C)(C)=O)c(OCCN3CCOCC3)c2)nc1-c1c[nH]c2ccccc12` [Example 27, N-[4-[[dimethyl(oxo)-λ^6-sulfanylidene]amino]-3-(2-morpholinoethoxy)phenyl]-4-(1H-indol-3-yl)-5-methyl-pyrimidin-2-amine], for which the figures for the IC50 in assay [1] and in [4] were 43 nM and 16 nM, respectively. For the same compound, the Kd in assay [2] was found to be 2 nM; in assay [3], 1 nM; in [6], 2 nM; in assay [7] it was 110 nM. Also, in assay [5], the GI50 was 11 nM.

Turning to `Cc1cnc(Nc2ccc(N=S(C)(C)=O)cc2)nc1-c1c[nH]c2ccccc12` [Example 11, N-[4-[[dimethyl(oxo)-λ^6-sulfanylidene]amino]phenyl]-4-(1H-indol-3-yl)-5-methyl-pyrimidin-2-amine], the values for the IC50 in assay [1] and in assay [4] were 153 nM and 108 nM, respectively. The Kd stood at 350 nM in assay [2]; 57 nM in assay [8]; 3300 nM in [3]; 370 nM in assay [6]; 57 nM in [7]. The results for the GI50 in assay [9] and in assay [5] were 15 nM and 115 nM, respectively.

With `C=CC(=O)Nc1ccc2c(-c3nc(Nc4ccc(N=S(C)(C)=O)c(F)c4)ncc3Cl)cn(C)c2c1` [Example 93, N-[3-[5-Chloro-2-[4-[[dimethyl(oxo)-λ^6-sulfanylidene]amino]-3-fluoro-anilino]pyrimidin-4-yl]-1-methyl-indol-6-yl]prop-2-enamide], the results for the GI50 in assay [9] and in assay [5] were 14 nM and 1 nM, respectively.

Regarding `Cc1cnc(Nc2ccc(S(C)(=N)=O)cc2)nc1-c1c(C)[nH]c2ccccc12` (stereo not shown) [Example 57, 5-Methyl-4-(2-methyl-1H-indol-3-yl)-N-[4-(methylsulfonimidoyl)phenyl]-pyrimidin-2-amine], the IC50 in assay [1] worked out at 610 nM; in [4], 803 nM. Besides, the Kd stood at 50 nM in [2]; 6 nM in assay [8]; 43 nM in assay [3]; 53 nM in assay [6]; 680 nM in assay [7]. For the same compound, the GI50 in assay [9] worked out at 431 nM.

With `COc1cc(Nc2ncc(C)c(-c3c[nH]c4c(C)cccc34)n2)ccc1N=S(C)(C)=O` [Example 31, N-[4-[[dimethyl(oxo)-λ^6-sulfanylidene]amino]-3-methoxy-phenyl]-5-methyl-4-(7-methyl-1H-indol-3-yl)pyrimidin-2-amine], the IC50 in assay [1] is 23 nM; in assay [4], 5 nM. Also, the equilibrium dissociation constant (Kd) in assay [2] was 1 nM; in assay [8] it was 0.5 nM; in [3], 3 nM; in assay [6] it was 5 nM; in assay [7], 62 nM. Besides, the results for the GI50 in assay [9] and in assay [5] were 40 nM and 2 nM, respectively.

In the case of `C=CC(=O)Nc1ccc2c(-c3nc(Nc4ccc(N=S(C)(C)=O)nc4)ncc3Cl)cn(C)c2c1` [Example 94, N-[3-[5-Chloro-2-[[6-[[dimethyl(oxo)-λ^6-sulfanylidene]amino]-3-pyridyl]amino]pyrimidin-4-yl]-1-methyl-indol-6-yl]prop-2-enamide], the GI50 in assay [9] stood at 23 nM; in [5], 4 nM.

For `C=CC(=O)Nc1cc2ccn(-c3nc(Nc4ccc(N=S(C)(C)=O)cc4)ncc3Cl)c2cc1C` [Example 85, N-[1-[5-chloro-2-[4-[[dimethyl(oxo)-λ^6-sulfanylidene]amino]anilino]-pyrimidin-4-yl]-6-methyl-indol-5-yl]prop-2-enamide], the dissociation constant (Kd) in assay [2] came out at 330 nM; in [8], 16 nM; in assay [3], 89 nM; in assay [6], 180 nM; in assay [7] it was 2300 nM. For the same compound, the GI50 in assay [9] amounted to 459 nM; in assay [5], 171 nM.

`COc1cc(Nc2ncc(C)c(-c3c[nH]c4ccccc34)n2)ccc1N=S(C)(C)=O` [Example 26, N-[4-[[dimethyl(oxo)-λ^6-sulfanylidene]amino]-3-methoxy-phenyl]-4-(1H-indol-3-yl)-5-methyl-pyrimidin-2-amine]: the values for the IC50 in assay [1] and in assay [4] were 111 nM and 173 nM, respectively. In addition, the Kd in [2] was found to be 42 nM; in [8], 1 nM; in [3], 2 nM; in assay [6], 10 nM; in [7], 91 nM. The GI50 in assay [9] worked out at 15 nM; in [5], 75 nM.

Regarding `Cc1[nH]c2ccccc2c1-c1nc(Nc2ccc(S(C)(=N)=O)cc2)ncc1Cl` (stereo not shown) [Example 56, 5-Chloro-4-(2-methyl-1H-indol-3-yl)-N-[4-(methylsulfonimidoyl)phenyl]-pyrimidin-2-amine], the IC50 in assay [1] came out at 377 nM; in assay [4] it was 857 nM. Moreover, the dissociation constant (Kd) in assay [2] turned out to be 64 nM; in assay [8], 3 nM; in [3], 34 nM; in assay [6], 49 nM; in [7] it was 740 nM. In addition, in assay [9], the GI50 turned out to be 273 nM.
